Common to all, as to experiment: NCI-60 cell line screen, 48 h
The test system of test [1] is UO-31 renal.
Test [2] relates to DU-145 prostate.
Test [3] has as its system CAKI-1 renal.
Test [4] has as its system UACC-62 melanoma.
Test [5] relates to MDA-N.
Test [6] has as its system SK-MEL-2 melanoma.
Test [7] has as its system SNB-75 CNS.
The test system of test [8] is U251 CNS.
The subject of test [9] is MALME-3M melanoma.
The test system of test [10] is NCI-H23 lung.
For test [11], the system named is HCT-116 colon.
Test [12] concerns SNB-19 CNS.
For test [13], the system named is EKVX NSCLC.
The subject of test [14] is MDA-MB-231 breast.
For test [15], the system named is MDA-MB-435.
The subject of test [16] is SF-539 CNS.
Test [17] concerns HL-60(TB) leukemia.
For test [18], the system named is NCI-H522 lung.
Test [19] deals with RXF 393 renal.

SMILES strings stand for the structures.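 Tested at 5 concentrations; 48 h exposure; 96-well plates; endpoints linearly interpolated, else capped at highest concentration. At the TGI there is no net growth.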

As to `O=C1c2ccccc2-c2c1c(-c1ccc([N+](=O)[O-])cc1)nc1ccc3ccccc3c21`, the TGI in test [1], in test [2], in test [3], in test [4], in test [5] and in [6] was above 100 µM in each case. Besides, the TGI in test [7], in test [8], in test [9], in [10], in test [11] and in test [12] was above 100 µM each time. The TGI in test [13], in test [14], in test [15] and in test [16] was above 100 µM throughout.

As to `O=C(O)[C@@H]1CCC(=O)N1C(c1ccc2c(c1)OCO2)c1ccc2c(c1)OCO2`, the TGI in test [1], in [2], in [3], in [4], in test [5] and in [6] was above 100 µM throughout. Moreover, the TGI in test [17], in test [7], in test [18], in test [8], in test [9] and in test [10] was above 100 µM in each case. The TGI in test [11], in test [12], in test [13], in test [14], in test [15] and in [16] was above 100 µM each time.

On to `COC(=O)[C@H]1C[C@H]1NC(=O)C(CC(=O)OCc1ccccc1)NC(=O)OCc1ccccc1` (some centres undefined), for which the TGI is above 100 µM in test [2]; above 100 µM in test [5]; 56.9 µM in test [6]; 39.6 µM in test [17]; above 100 µM in test [7]; above 100 µM in test [18]. Also, the TGI in test [8], in test [10], in test [11], in test [12], in [13] and in test [14] was above 100 µM each time. The TGI in test [15] was 69.8 µM; in [16] it was above 100 µM.

With `CN(Cc1cnc2nc(N)nc(N)c2n1)c1ccc(C(=O)NCS(=O)(=O)O)cc1`, the TGI in test [1] was above 100 µM; in test [2], 82.7 µM; in test [4] it was above 100 µM; in [5], above 100 µM; in test [6], above 100 µM; in [7], above 100 µM. For the same compound, the TGI in test [18], in test [8], in [9], in [10], in test [11] and in test [12] was above 100 µM each time. For the same compound, the TGI in test [13], in [14], in test [15] and in test [16] was above 100 µM each time.

As to `CC(=O)OC(C)c1cc2c(s1)C(=O)c1scc(C(C)OC(C)=O)c1C2=O` (centres undefined), the TGI in [1] was 0.451 µM; in test [19], 1.31 µM; in test [2] it was 0.317 µM; in test [3], 5.04 µM; in [4] it was 0.418 µM; in test [5], 0.256 µM. Further, the TGI was above 100 µM in test [17]; 0.332 µM in test [7]; 0.571 µM in [18]; 1.66 µM in [8]; 0.288 µM in [9]; 0.398 µM in test [10]. Also, the TGI was found to be 0.838 µM in test [11]; 0.454 µM in [12]; 2.2 µM in test [13]; 0.0815 µM in test [15]; 0.36 µM in test [16].

Regarding `O1C2C1C1OC1C1OC1C1OC21` (centres undefined), the TGI in test [1], in test [2], in [3], in test [4], in [5] and in [6] was above 100 µM in each case. The TGI in [7], in test [18], in test [8], in [9], in test [10] and in test [11] was above 100 µM throughout. Further, the TGI in [12], in [13], in [14] and in [15] was above 100 µM throughout.

`c1ccc(C2SCc3nc4cc5ccccc5cc4n32)cc1` (centres undefined): the TGI in test [1], in test [19], in test [2], in [3], in test [4] and in [5] was above 100 µM in each case. The TGI in test [6], in test [7], in [8], in test [9], in [10] and in test [11] was above 100 µM each time. The TGI in [12], in test [13], in test [14], in test [15] and in test [16] was above 100 µM each time.

As to `COc1cc(/C=C/C(=O)OCCc2ccccc2)ccc1O`, the TGI came out at 27.3 µM in [1]; 30.4 µM in test [2]; 29.7 µM in test [3]; 26 µM in test [4]; 34.4 µM in test [5]; 42.7 µM in test [6]. Moreover, the TGI in test [17] is 40.2 µM; in test [7] it was 30.2 µM; in test [18], 22.1 µM; in test [8] it was 29.5 µM; in [9], 31.7 µM; in test [10] it was 36.5 µM. For the same compound, the TGI in [11] was determined as 31.6 µM; in [12] it was 33.9 µM; in test [13], 33.5 µM; in test [14], 30.6 µM; in test [15], 27.3 µM; in [16], 36.7 µM.

`COc1ccc(OC)c(C23CCCC(C2)N(C)CC3)c1` (centres undefined): the TGI is above 100 µM in test [1]; 61.2 µM in [19]; 91.9 µM in test [2]; above 100 µM in [3]; 46 µM in test [4]; 74.6 µM in test [5]. The TGI was 53 µM in test [6]; 27.6 µM in test [8]; above 100 µM in test [10]; 41.3 µM in test [11]; 49 µM in test [12]; above 100 µM in test [13]. For the same compound, the values for the TGI in [14] and in test [15] were above 100 µM and 37.9 µM, respectively.

`COc1ccc2c(c1)c1c(n2CCN(C)C)-c2cccc(OC)c2CC1`: the TGI in test [1] is 35.4 µM; in test [2], 39.5 µM; in test [3], 29.1 µM; in [4], 34.6 µM; in test [5], 26.1 µM; in test [6] it was 30.2 µM. The TGI is 18.9 µM in test [7]; 15.6 µM in test [18]; 32.6 µM in test [8]; 36.9 µM in test [10]; 50.3 µM in test [11]; 46.8 µM in test [12]. For the same compound, the TGI was 35 µM in test [13], 35.2 µM in test [14] and 28 µM in test [15].

Take `Cc1cnc(-c2c[nH]c3ccccc23)nc1-c1c[nH]c2ccccc12`: the TGI in [1] came out at 20.8 µM; in [2], 20.1 µM; in test [3], 23.2 µM; in test [4], 17.4 µM; in [5], 15.8 µM; in [6] it was 20.6 µM. Further, the TGI in test [17] worked out at 25.1 µM; in test [7] it was 9.64 µM; in [8], 19.7 µM; in test [11], 16.4 µM; in test [12], 24.9 µM; in [13], 19.3 µM. The figures for the TGI in [14], in test [15] and in test [16] were 7.78 µM, 19.8 µM and 30.7 µM, respectively.

In the case of `O=c1oc2ccccc2c(O)c1C1c2c(c3ccccc3oc2=O)Oc2c1c(=O)oc1ccccc21`, the TGI in test [1] is 35.6 µM; in [2], above 100 µM; in test [3] it was 69.3 µM; in [4], 47.5 µM; in [5], 37.3 µM; in test [6], above 100 µM. For the same compound, the TGI in test [7] is above 100 µM; in test [18] it was above 100 µM; in test [8] it was above 100 µM; in test [9], above 100 µM; in [10], 89.2 µM; in [11], above 100 µM. Also, the TGI in test [12] is above 100 µM; in test [13] it was above 100 µM; in test [14], 71.2 µM; in [15] it was 60 µM.

In the case of `Cc1n[nH]c(=O)n1/N=C/c1cccs1`, the TGI in test [1], in test [19], in test [2], in test [3], in test [4] and in test [5] was above 100 µM in each case. Also, the TGI in test [6], in test [7], in test [8], in [9], in [10] and in test [11] was above 100 µM throughout. Further, the TGI in test [12], in [13], in test [14], in test [15] and in [16] was above 100 µM throughout.

These data come from PubChem BioAssay (NCI).
